Test results: patent publication US4160829A, “Antibacterial 1,2,4-oxadiazolylacetamido cephalosporins” (Gist-Brocades N.V., priority 1972, dated 1979)
Values after ≈ are worked out from the molar mass of the structure shown. Read-outs that look alike come from different tables or passages of the source.

Tests used:
Bac.Subt.ATCC 6633 = assay: agar serial dilution test; type: cell-based, Bacillus subtilis; conditions: Bacillus subtilis, ATCC6633, 24 h, read-out: minimal inhibitory concentration (MIC)
Staph.aureus A 321 = assay: agar serial dilution test; type: cell-based, Staphylococcus aureus; conditions: Staphylococcus aureus, A321, 24 h, read-out: minimal inhibitory concentration (MIC)
Staph.aureus A 2000 [1] = assay: agar serial dilution test; type: cell-based, Staphylococcus aureus; conditions: Staphylococcus aureus, A2000, 24 h, read-out: minimal inhibitory concentration (MIC)
Staph.aureus A 2001 [2] = assay: agar serial dilution test; type: cell-based, Staphylococcus aureus; conditions: Staphylococcus aureus, A2001, 24 h, agar serial dilution, 24 hours, 37° C.; read-out: minimal inhibitory concentration (MIC)
Strep. faec. L 80 = assay: agar serial dilution test; type: cell-based, Streptococcus faecalis; conditions: Enterococcus faecalis, read-out: minimal inhibitory concentration (MIC)
Dipl.pneum. L 54 = assay: agar serial dilution test; type: cell-based, Diplococcus pneumoniae; conditions: Streptococcus pneumoniae, read-out: minimal inhibitory concentration (MIC)
Past.multo. A 723 = assay: agar serial dilution test; type: cell-based, Pasteurella multocida; conditions: Pasteurella multocida, read-out: minimal inhibitory concentration (MIC)
Kleb.pneum. A 809 = assay: agar serial dilution test; type: cell-based, Klebsiella pneumoniae; conditions: Klebsiella pneumoniae, read-out: minimal inhibitory concentration (MIC)
Salm.dubl. P 43 = assay: agar serial dilution test; type: cell-based, Salmonella dublin; conditions: Salmonella enterica, read-out: minimal inhibitory concentration (MIC)
Esch.coli U 20 = assay: agar serial dilution test; type: cell-based, Escherichia coli; conditions: Escherichia coli
Pseud.aerug. H 10 = assay: agar serial dilution test; type: cell-based; conditions: read-out: minimal inhibitory concentration (MIC)
Pseud.aerug. 2396 = assay: agar serial dilution test; type: cell-based; conditions: read-out: minimal inhibitory concentration (MIC)
[3] = test system: Pseud.aerug. Wyeth A 1058; assay: agar serial dilution test; type: cell-based; conditions: read-out: minimal inhibitory concentration (MIC)
Prot.rettg. A 821 = assay: agar serial dilution test; type: cell-based, Proteus rettgeri; conditions: Providencia rettgeri, 24 h, read-out: minimal inhibitory concentration (MIC)
Prot.mirab. H 3 = assay: agar serial dilution test; type: cell-based, Proteus mirabilis; conditions: Proteus mirabilis
Prot.mirab. L 93 = assay: agar serial dilution test; type: cell-based, Proteus mirabilis; conditions: Proteus mirabilis
Prot.mirab. A 1200 = assay: agar serial dilution test; type: cell-based, Proteus mirabilis; conditions: Proteus mirabilis, 24 h, agar serial dilution, 24 hours, 37° C.; read-out: minimal inhibitory concentration (MIC)
Prot.morg. 2241 = assay: agar serial dilution test; type: cell-based; conditions: 24 h, read-out: minimal inhibitory concentration (MIC)
Strep.haem A 1088 = assay: agar serial dilution test; type: cell-based, Streptococcus haemolyticus; conditions: Streptococcus, A1088, 24 hours, 37° C., read-out: minimal inhibitory concentration (MIC)
Bruc. Suis A 2126 = assay: agar serial dilution test; type: cell-based; conditions: Brucella suis, 24 h, read-out: minimal inhibitory concentration (MIC)
Salm.typh. R 172 = assay: agar serial dilution test; type: cell-based; conditions: 24 h, read-out: minimal inhibitory concentration (MIC)
Actinob.equ. T 3 = assay: agar serial dilution test; type: cell-based; conditions: 24 hours, 37° C., read-out: minimal inhibitory concentration (MIC)
Staph.aureus A 355 [4] = assay: micro serial dilution test; type: cell-based, Staphylococcus aureus; conditions: Staphylococcus aureus, A355; micro serial dilution (in brackets), about 18 hours, 30° C. or 37° C.; penicillinase-producing strain; read-out: minimal inhibitory concentration (MIC)
Staph.aureus A 2000 [5] = assay: micro serial dilution test; type: cell-based, Staphylococcus aureus; conditions: Staphylococcus aureus, A2000, 18 h, micro serial dilution (in brackets), about 18 hours, 30° C. or 37° C.; read-out: minimal inhibitory concentration (MIC)
Staph.aureus A 2001 [6] = assay: micro serial dilution test; type: cell-based, Staphylococcus aureus; conditions: Staphylococcus aureus, A2001, 18 h, micro serial dilution (in brackets), about 18 hours, 30° C. or 37° C.; read-out: minimal inhibitory concentration (MIC)
Haem.Suis A 2096 = assay: micro serial dilution test; type: cell-based; conditions: micro serial dilution (in brackets), about 18 hours, 30° C. or 37° C.; read-out: minimal inhibitory concentration (MIC)
Staph.aureus A 355 [7] = assay: agar serial dilution test; conditions: Staphylococcus aureus, A355, 24 h
Strep.haem. A 266 = assay: agar serial dilution test; type: cell-based, Streptococcus haemolyticus; conditions: Streptococcus, read-out: minimal inhibitory concentration (MIC)
Haem.infl. A 1030 [8] = assay: agar serial dilution test; type: cell-based; conditions: 24 hours, 37° C., read-out: minimal inhibitory concentration (MIC)
Bruc.melit. A 488 = assay: microbe, parasite or virus in culture; type: cell-based; conditions: Brucella melitensis, 24 h, read-out: minimal inhibitory concentration (MIC)
Shig.equir. T 3 = assay: agar serial dilution test; type: cell-based; conditions: 24 h, 37° C., read-out: minimal inhibitory concentration (MIC)
Haem.infl. A 1030 [9] = assay: micro serial dilution test; type: cell-based; conditions: 18 h, read-out: minimal inhibitory concentration (MIC)
Salm.typh. R 127 = assay: micro serial dilution test; type: cell-based; conditions: micro serial dilution (in brackets), about 18 hours, 30° C. or 37° C.; read-out: minimal inhibitory concentration (MIC)
Text: Two drops of a stock solution of the test compound (antibiotic) in a known concentration were brought into the first hole of a test plate with 9 numbered holes with a sterile Pasteur pipette. After rinsing this pipette three times with a physiological NaCl-solution, two drops of a stock solution of the test organism in a culture medium were brought in all the holes except for hole 8. In the first hole, the solution of the tested compound had been half diluted, then by stirring the liquid in the first hole and adding two drops of this mixture to the second hole and so on until hole 8, dilutions of the test compound solution were obtained in geometrical progression. The hole 9 contained no antibiotic and served for checking the growth of the testogranism in a blank medium. The test plate was incubated at 30° C. or 37° C. for about 18 hours.

pKa determined in water = type: physicochemical
[10] = agar serial dilution, 24 hours, 37° C.
[11] = U20, agar serial dilution, 24 hours, 37° C., read-out: minimal inhibitory concentration (MIC)
[12] = agar serial dilution, 24 hours, 37° C., read-out: minimal inhibitory concentration (MIC)
[13] = read-out: minimal inhibitory concentration (MIC), agar serial dilution, 24 hours, 37° C., penicillinase-producing strain
[14] = 24 h, read-out: minimal inhibitory concentration (MIC), agar serial dilution, 24 hours, 37° C.

| SMILES | MIC (Bac.Subt.ATCC 6633; [10]) [µg/mL] | MIC (Staph.aureus A 321; [10]) [µg/mL] | MIC (Staph.aureus A 2000 [1]; [10]) [µg/mL] | MIC (Staph.aureus A 2001 [2]) [µg/mL] | MIC (Strep. faec. L 80; [10]) [µg/mL] | MIC (Dipl.pneum. L 54; [10]) [µg/mL] | MIC (Past.multo. A 723; [10]) [µg/mL] | MIC (Kleb.pneum. A 809; [10]) [µg/mL] | MIC (Salm.dubl. P 43; [10]) [µg/mL] | MIC (Esch.coli U 20; [11]) [µg/mL] | MIC (Pseud.aerug. H 10; [10]) [µg/mL] | MIC (Pseud.aerug. 2396; [10]) [µg/mL] | MIC [3, 10] [µg/mL] | MIC (Prot.rettg. A 821; [10]) [µg/mL] | MIC (Prot.mirab. H 3; [12]) [µg/mL] | MIC (Prot.mirab. L 93; [12]) [µg/mL] | MIC (Prot.morg. 2241; [10]) [µg/mL] | MIC (Staph.aureus A 355 [7]; [13]) [µg/mL] | MIC (Bruc.melit. A 488) [µg/mL] | MIC (Shig.equir. T 3) [µg/mL] | other results |
| --- | --- | --- | --- | --- | --- | --- | --- | --- | --- | --- | --- | --- | --- | --- | --- | --- | --- | --- | --- | --- | --- |
| CCc1nc(CC(=O)N[C@@H]2C(=O)N3C(C(=O)O)=C(CSc4nnc(C)s4)CS[C@H]23)no1 [41 A, Sodium 7-[5-ethyl-1,2,4-oxadiazol-3-yl-acetamido]-3-[5-methyl-1,3,4-thiadiazol-2-yl-mercaptomethyl]-3-cephem-4-carboxylate] | 0.25 | 0.25 | 0.5 | 0.5 | 50 | 0.75 | 1.5 | 6 | 12.5 | 3 | 100 | 100 | 100 | 1.5 | 100 | 6 | 100 | 0.75 |  |  | MIC (Prot.mirab. A 1200): 100 µg/mL; MIC (Strep.haem A 1088): 0.06 µg/mL; MIC (Bruc. Suis A 2126): 6 µg/mL; MIC (Salm.typh. R 172): 50 µg/mL; MIC (Actinob.equ. T 3): 12.5 µg/mL; MIC (Staph.aureus A 355 [4]): 0.3 µg/mL; MIC (Staph.aureus A 2000 [5]): 0.23 µg/mL; MIC (Staph.aureus A 2001 [6]): 0.15 µg/mL; MIC (Haem.Suis A 2096): 15 µg/mL |
| CC1(C)S[C@@H]2[C@H](NC(=O)[C@H](N)c3ccccc3)C(=O)N2[C@H]1C(=O)O [Ampicillin, reference compound] | 0.03 (≈ 0.0859 µM) | 0.12 (≈ 0.343 µM) | 1.5 (≈ 4.29 µM) | 1 (≈ 2.86 µM) | 1 (≈ 2.86 µM) | 0.06 (≈ 0.172 µM) | 0.25 (≈ 0.715 µM) | 25 (≈ 71.5 µM) | 1.5 (≈ 4.29 µM) | 3 (≈ 8.59 µM) | 125 (≈ 358 µM) | 12.5 (≈ 35.8 µM) | > 100 | 3 (≈ 8.59 µM) | 0.9 (≈ 2.58 µM) | 0.15 (≈ 0.429 µM) | 12.5 (≈ 35.8 µM) | 6 (≈ 17.2 µM) | 1 (≈ 2.86 µM) | 1 (≈ 2.86 µM) | MIC (Strep.haem. A 266; [10]): < 0.015 µg/mL; MIC (Haem.infl. A 1030 [8]): < 125 µg/mL; MIC (Haem.infl. A 1030 [9]; micro serial dilution (in brackets), about 18 hours, 30° C. or 37° C.): 0.5 µg/mL (≈ 1.43 µM) |
| CC1=C(C(=O)O)N2C(=O)[C@@H](NC(=O)[C@H](N)c3ccccc3)[C@H]2SC1 [Cefalexin, reference compound] |  |  |  |  |  |  |  |  |  |  |  |  |  |  |  |  |  |  | 6 (≈ 17.3 µM) | 1.5 (≈ 4.32 µM) | MIC (Bac.Subt.ATCC 6633): 0.5 µg/mL (≈ 1.44 µM); MIC (Staph.aureus A 321): 1.5 µg/mL (≈ 4.32 µM); MIC (Staph.aureus A 2000 [1]): 12.5 µg/mL (≈ 36 µM); MIC (Strep.haem. A 266; 24 h): 0.25 µg/mL (≈ 0.72 µM); MIC (Strep. faec. L 80; 24 h): 100 µg/mL (≈ 288 µM); MIC (Dipl.pneum. L 54; 24 h): 3 µg/mL (≈ 8.64 µM); MIC (Past.multo. A 723; 24 h): 3 µg/mL (≈ 8.64 µM); MIC (Kleb.pneum. A 809; 24 h): 3 µg/mL (≈ 8.64 µM); MIC (Salm.dubl. P 43; 24 h): 6 µg/mL (≈ 17.3 µM); MIC (Esch.coli U 20; U20, 24 h, read-out: minimal inhibitory concentration (MIC), agar serial dilution, 24 hours, 37° C.): 12.5 µg/mL (≈ 36 µM); MIC (Pseud.aerug. H 10; 24 h): > 100 µg/mL; MIC (Pseud.aerug. 2396; 24 h): > 100 µg/mL; MIC ([3]; 24 h): > 100 µg/mL; MIC (Prot.rettg. A 821): 12.5 µg/mL (≈ 36 µM); MIC (Prot.mirab. H 3; [14]): 25 µg/mL (≈ 72 µM); MIC (Prot.mirab. L 93; [14]): 12.5 µg/mL (≈ 36 µM); MIC (Prot.morg. 2241): > 100 µg/mL; MIC (Haem.infl. A 1030 [9]): 125 µg/mL (≈ 360 µM); MIC (Salm.typh. R 127): 6 µg/mL (≈ 17.3 µM); MIC (Staph.aureus A 355 [7]; read-out: minimal inhibitory concentration (MIC)): 12.5 µg/mL (≈ 36 µM) |
| Cc1noc(CC(=O)O)n1 [Example 1, 3-methyl-1,2,4-oxadiazol-5-yl-acetic acid] |  |  |  |  |  |  |  |  |  |  |  |  |  |  |  |  |  |  |  |  | pKa (pKa determined in water): 3.64 |
| Cc1nc(CC(=O)O)no1 [Example 4, 5-methyl-1,2,4-oxadiazol-3-yl-acetic acid] |  |  |  |  |  |  |  |  |  |  |  |  |  |  |  |  |  |  |  |  | pKa (pKa determined in water): ~3.4 |
| CC1(C)S[C@@H]2[C@H](NC(=O)Cc3nc(-c4c(Cl)cccc4Cl)no3)C(=O)N2[C@H]1C(=O)O [Example 11A, 6-{[3-(2,6-dichlorophenyl)-1,2,4-oxadiazol-5-yl]-acetamido}penicillanic acid] | 0.06 (≈ 0.127 µM) | 0.06 (≈ 0.127 µM) | 3 (≈ 6.37 µM) |  | 25 (≈ 53 µM) | 3 (≈ 6.37 µM) | 3 (≈ 6.37 µM) | > 100 | > 100 | > 100 | > 100 | > 100 | > 100 | > 100 | > 100 | > 100 | > 100 | 3 (≈ 6.37 µM) | 3 (≈ 6.37 µM) | 25 (≈ 53 µM) | MIC (Strep.haem. A 266; [10]): 1 µg/mL (≈ 2.12 µM); MIC (Haem.infl. A 1030 [8]): 100 µg/mL (≈ 212 µM) |
